{
  "source": "patent US20030100508A1",
  "about": "“Carbohydrate epitope mimic compounds and uses thereof” (priority 1999, published 2003)",
  "key": {"laminin": {"biological_target": "T1, laminin (Mus musculus, UniProt P19137)", "T1 construct": "purchased Gibco/BRL", "test": "Competition of L2 glycolipid binding to immobilized laminin by CD4 peptide", "conditions": "L2 glycolipids 3 μg/ml, varying CD-4 peptide", "procedure": "The CD-4 peptide was conjugated to Ovalbumin (by similar methods as for BSA conjugation described in Materials and Methods) to generate CD4-OV, and binding experiments were performed to assess binding of conjugated peptide to laminin and L2 glycolipid. In particular, it was necessary to confirm that CD4 peptide and laminin compete directly in binding to L2/HNK-1 glycolipids. In this set of experiments, microtiter plates were coated with serial dilutions of either CD4-OV or laminin (each 10 μg/ml 1:1 in EtOH, allowed to dry overnight). The coated plates were then incubated in the following combinations: (a) CD4-OV coated plates with L2 glycolipid (3 μg/ml, 1 hr, RT); (b) laminin coated plates with L2 glycolipid (3 μg/ml. 1 hr, RT); and (c) laminin coated plates with CD-4-OV (1 μg/ml) and L2 glycolipids (3 μg/ml) for 1 hr at RT. Similar to the previous set of experiments L2-412 antibody was added (1:1000, 3 hr, RT), followed by HRP-conjugated-goat anti-rat antibody (2 hrs, RT) and detection by HRP-linked secondary antibody. The results (not shown) confirmed that CD4 peptide and laminin compete directly in binding to L2/HNK-1 glycolipids.\nTo further assess whether the CD-4 peptide could inhibit L2 glycolipid binding to laminin, a fixed amount of L2 glycolipid was incubated with immobilized laminin, in the presence of varying concentrations of CD-4 peptide. […]"}, "[1]": {"test": "L2 glycolipid binding to immobilized CD4 peptide", "conditions": "L2 glycolipid 3 μg/ml, detected with L2-412", "procedure": "The ability of isolated L2/HNK-1 glycolipid to bind to immobilized CD-4 peptide was tested. CD-4 peptide was immobilized in water at different concentrations and dried onto microtiter plates overnight. The microtiter plates were blocked with 1% BSA in PBS, incubated with 3 ug/ml L2 glycolipid for 1.5 hours at room temperature, and washed with PBS. Bound L2 glycolipid was detected with L2-412 antibody followed by HRP-linked secondary antibody.\nIt was determined whether L2 glycolipid could bind substrate coated CD-4 peptide. CD4 peptide was coated onto microtiter plates by coating with serial dilutions of CD4 peptide (1 mg/ml 1:1 in EtOH) and allowed to dry overnight. The wells were incubated with L2-glycolipid (3 μg/ml) for 1 hour at RT, L2-412 antibody (1: 1000) then added and further incubated for 3 hours at RT. Goat anti-rat antibody was then added, incubated 2 hours at RT and detected by HRP-linked secondary antibody.\nThe CD-4 peptide was conjugated to Ovalbumin (by similar methods as for BSA conjugation described in Materials and Methods) to generate CD4-OV, and binding experiments were performed to assess binding of conjugated peptide to laminin and L2 glycolipid. In particular, it was necessary to confirm that CD4 peptide and laminin compete directly in binding to L2/HNK-1 glycolipids. […]"}},
  "data": [
    {"sequence": "RASSSKSWITFDLKNKEVSVK [CD4 peptide]", "values": [
      {"measurement": "competition of L2 glycolipid binding to immobilized laminin", "setting": "laminin", "value": "competes with L2 glycolipid binding to immobilized laminin in a concentration-dependent manner"},
      {"measurement": "L2 glycolipid binding to immobilized CD4 peptide (words)", "setting": "[1]", "value": "binds to CD4 peptide in a concentration-dependent manner"},
      {"measurement": "L2 glycolipid binding to immobilized CD4 peptide (words)", "setting": "[1]; listed as CD-4 peptide", "value": "binds L2 glycolipid in a concentration dependent manner"}
    ]}
  ]
}
